In patent US20060247321A1, “Abnormal Cannabidiols as agents useful in combination therapy for lowering intraocular pressure” (priority 2005, published 2006):

Columns and labels:
Assay type in all cases: in vivo
[1] = test system: Laser-induced unilaterally ocular hypertensive Cynomolgus monkeys; assay: Intraocular pressure by applanation pneumatonometry in conscious monkeys; settings: 0.1%, topical to one eye, once daily for 4 days, vehicle in fellow eye
Procedure: (§1) Intraocular pressure was measured by applanation pneumatonometry in conscious animals. The test compound was administered topically to one eye while vehicle was given to the fellow eye in a masked fashion. Ocular normotensive Beagle dogs (males, females) were dosed once daily for five days. Laser-induced unilaterally ocular hypertensive Cynomolgus monkeys (females) were dosed once daily for 4 days. Student's paired t-test was used for statistical comparisons. Differences were considered statistically significant if the P-value is less than 0.05.

[2] = test system: ocular normotensive nonhuman primates (cynomolgus monkeys); assay: Outflow facility of monkeys treated with abnormal cannabidiol; settings: 0.1%
Text: (§2) Consequently, the intraocular pressure lowering effects of abnormal cannabidiol is anticipated to predominantly involve reduction of aqueous humor formation in humans and nonhuman primates.

[3] = test system: Ocular normotensive Beagle dogs; assay: Intraocular pressure by applanation pneumatonometry in conscious dogs; settings: 0.1%, topical to one eye, once daily for five days, vehicle in fellow eye
Procedure: as §1

[4] = test system: ocular normotensive nonhuman primates (cynomolgus monkeys); assay: Uveoscleral outflow of monkeys treated with abnormal cannabidiol; settings: 0.1%
Text: as §2

[5] = topically once-daily for 5 days

## Abnormal Cannabidiol
[1]
  effect on Monkey Intraocular Pressure versus time: lowers IOP
[2]; topical once-daily for 5 days vs vehicle, mean ± sem, n = 6 animals
  Outflow Facility, Ratio, Treated:Control, Treatment: 0.93 ± 0.09
[2]; topical once-daily for 5 days, mean ± sem, n = 6 animals
  Outflow Facility, Treated Eye, Treatment: 0.57 ± 0.08 ul/min/mm Hg
[2]; [5]
  effect on total outflow facility compared to baseline and/or contralateral vehicle-treated control eyes: no significant effects
[3]
  effect on Dog Intraocular Pressure versus time: lowers IOP
[4]; topical once-daily for 5 days vs vehicle, mean ± sem, n = 5 animals
  Uveosclearal Outflow, Ratio, Treated:Control: 0.78 ± 0.05
[4]; topical once-daily for 5 days, mean ± sem, n = 5 animals
  Uveosclearal Outflow, Treated Eye: 0.58 ± 0.17 µL/min
[4]; [5]
  effect on uveoscleral outflow compared to baseline and/or contralateral vehicle-treated control eyes: no significant effects
